Patent US20240181089A1, “PHARMACEUTICAL POLYMER CONJUGATES” (priority 2021, published 2024)

Legend:
[1] = test system: folate receptor (FR) isoforms FR-α and FR-β; conditions: Vaitilingam et al.; cited from earlier work
4T1 cells [2] = assay: Confocal microscopy mode-of-action test (cell detachment, anti-AIF, TUNEL, Hoechst) with or without PJ34; type: cell-based, murine; conditions: 1.5 h treatment
Description: In addition to the cytotoxicity featuring the simultaneous uptake of PI and A5, Fatokun et al. previously defined PARP-dependent nuclear translocation of AIF and subsequent generation of massive DNA breaks as the hallmark features of parthanatos (Parthanatos: mitochondrial-linked mechanisms and therapeutic opportunities. British journal of pharmacology 171, 2000-2016 (2014)). To investigate whether the observed PI+A5 + necrotic 4T1 cell deaths by the zinc compounds (FIG. 5B and 5C) accompanied these features, we performed confocal microscopy studies after 1.5 h treatment for assessing the occurrence of PARP-dependent cytotoxicity, nuclear AIF translocation, and DNA breaks using fluorescent probes of anti-AIF, TUNEL, and Hoechst 33342 (Hoechst) DNA stain upon co-incubation with a potent PARP1 and PARP2 inhibitor PJ34. Assessment of PAR-polymer content, however, could not be incorporated into this experiment due to unavailability of sufficiently sensitive fluorescent probe for PAR-polymer during this study. Also, any longer treatment time could not be applied to this experiment due to extensive cytotoxic changes observed in the C010DS-Zn treated groups.

4T1 cells [3] = assay: Apoptosis-necrosis flow cytometry with annexinV (A5) and propidium iodide (PI); type: cell-based, murine
[4] = test system: 4T1 murine triple negative breast cancer cell line; type: cell-based; conditions: 24 h treatment, LDH release, 4T1 cells, expressed in zinc concentration
Description: 24 h in vitro cytotoxicity was tested for each compound against 4T1 murine triple negative breast cancer cell line in obtaining their IC5024h values using lactate dehydrogenase release assay (LDH assay), which were expressed in zinc concentration (μM Zn) units for comparative viewing.

cancer cell lines = conditions: NPL6; cited from earlier work
[5] = concentration-resolved study after 3 h treatment

CN(CC1CNc2nc(N)[nH]c(=O)c2N1C)c1ccc(C(=O)N[C@@H](CCC(=O)O)C(=O)O)cc1 (some centres unmarked) [DMTHF, N^5, N^10-dimethyl tetrahydrofolate]
folate receptor isoform preference [1]: higher affinity for FR-α over FR-β

O=S(=O)([O-])[O-].[Zn+2] [zinc sulfate]
nuclear AIF translocation and DNA damages (TUNEL) (4T1 cells [2]): failed to elicit significantly higher nuclear AIF translocation nor the DNA damages
cell detachment (4T1 cells [2]; all concentrations tested): did not cause marked cell detachment
A5+ only apoptotic cell deaths (4T1 cells [3]; [5]): without notable increases
proportion of PI+ only necrosis (4T1 cells [3]; [5]): 18%
proportion of PI+A5+ necrosis (4T1 cells [3]; [5]): 4%
PI+ only or PI+A5+ necrotic cell death (4T1 cells [3]; concentration-resolved study after 3 h treatment, maximum): ≤ 26%
time after treatment at which mainly PI+A5+ and minor PI+ only necrotic cell death was induced (4T1 cells [3]; time resolved study, 450 μM Zn): 1.5 h
IC50 [4]: 80.7 µM

zinc pyrithione [ZnPyr2]
PARP cleavage (cancer cell lines): complete PARP cleavage
mode of cell death (cancer cell lines): induced apoptosis in cancer cell lines
